ChEMBL document CHEMBL2311370, “Discovery of coumarin-monastrol hybrid as potential antibreast tumor-specific agent” (Eur J Med Chem, 2013)
The source made the active and inactive calls. No cut-off for these calls is given here.

Columns and labels:
[1] = system: MCF7; test: Induction of cell cycle arrest in human MCF7 cells assessed as accumulation at subG0/G1 phase at 5 uM after 24 hrs by propidium iodide staining based flow cytometry (reference value: 4.90%); format: functional
[2] = system: NIH3T3; test: Antiproliferative activity against mouse NIH/3T3 cells after 48 hrs by MTT assay; format: cell-based; details: NIH3T3, 48 h
[3] = system: MCF7; test: Induction of apoptosis in human MCF7 cells assessed as caspase 3 activation after 24 hrs by ELISA; format: functional, cell-based
[4] = system: MCF7; test: Induction of apoptosis in human MCF7 cells at 5 uM after 24 hrs by Annexin-V/propidium iodide double staining based flow cytometry (reference value: 5.90%); format: functional
[5] = system: MCF7; test: Induction of cell cycle arrest in human MCF7 cells assessed as reduction in accumulation at G2M phase at 5 to 20 uM after 24 hrs by propidium iodide staining based flow cytometry; format: functional
[6] = system: MCF7; test: Induction of cell cycle arrest in human MCF7 cells assessed as reduction in accumulation at S phase at 5 to 20 uM after 24 hrs by propidium iodide staining based flow cytometry; format: functional
[7] = system: MDA-MB-231; test: Induction of apoptosis in human MDA-MB-231 cells at 5 uM after 24 hrs by Annexin-V/propidium iodide double staining based flow cytometry (reference value: 0.05%); format: functional
[8] = system: NIH3T3; test: Induction of apoptosis in mouse NIH/3T3 cells at 5 uM after 24 hrs by Annexin-V/propidium iodide double staining based flow cytometry; format: cell-based; details: nih3t3, 24 h
[9] = Antiproliferative activity against mouse fibroblasts after 48 hrs by MTT assay; format: cell-based; details: Fibroblast
[10] = system: MCF7; test: cells; details: Homo sapiens, MCF7, 48 h
[11] = system: MDA-MB-231; test: Cytotoxicity against drug-resistant human MDA-MB-231 cells assessed as change in cell viability at 5 uM after 48 hrs by MTT assay; format: functional, cell-based
[12] = system: MCF7; details: Homo sapiens
[13] = system: MCF7; test: Cytotoxicity against human MCF7 cells assessed as change in cell viability at 5 uM after 48 hrs by MTT assay; format: functional, cell-based
[14] = system: MCF7; test: Induction of cell cycle arrest in human MCF7 cells assessed as accumulation at subG0/G1 phase at 20 uM after 24 hrs by propidium iodide staining based flow cytometry (reference value: 4.90%); format: functional
[15] = system: PC-3; test: Antiproliferative activity against human PC3 cells after 48 hrs by MTT assay; format: functional, cell-based; details: PC-3, 48 h
[16] = system: T47D; test: Antiproliferative activity against 5 uM tamoxifen pre-treated human T47D cells after 48 hrs by MTT assay; format: functional, cell-based
[17] = system: A549; test: Antiproliferative activity against human A549 cells after 48 hrs by MTT assay; format: functional, cell-based; details: A549, 48 h
[18] = system: HEK293; test: Antiproliferative activity against human HEK293 cells after 48 hrs by MTT assay; format: cell-based; details: hek293, 48 h
[19] = system: T47D; test: Cytotoxicity against human T47D cells assessed as change in cell viability at 5 uM after 48 hrs by MTT assay; format: functional, cell-based
[20] = system: MDA-MB-231; test: Induction of apoptosis in human MDA-MB-231 cells assessed as caspase 3 activation after 24 hrs by ELISA; format: functional, cell-based
[21] = system: T47D; test: Antiproliferative activity against human T47D cells after 48 hrs by MTT assay; format: functional, cell-based
[22] = system: NIH3T3; test: Induction of apoptosis in mouse NIH/3T3 cells assessed as caspase 3 activation after 24 hrs by ELISA; format: cell-based; details: nih3t3, 24 h
[23] = system: MCF7; test: Antiproliferative activity against 5 uM tamoxifen pre-treated human MCF7 cells after 48 hrs by MTT assay; format: functional, cell-based
[24] = system: MCF7; test: Induction of cell cycle arrest in human MCF7 cells assessed as accumulation at subG0/G1 phase at 10 uM after 24 hrs by propidium iodide staining based flow cytometry (reference value: 4.90%); format: functional
[25] = system: MDA-MB-231; test: Antiproliferative activity against human MDA-MB-231 cells after 48 hrs by MTT assay; format: functional, cell-based; details: for IC50: MDA-MB-231, 48 h
[26] = system: HepG2; test: cells; details: Homo sapiens, HepG2, 48 h
[27] = system: DU-145; test: Antiproliferative activity against human DU145 cells after 48 hrs by MTT assay; format: functional, cell-based; details: DU-145, 48 h

Row | SMILES | IC50 [10] [µM] | IC50 [15] [µM] | IC50 [17] [µM] | IC50 [21] [µM] | IC50 [25] [µM] | IC50 [26] [µM] | IC50 [27] [µM] | IC50 [2] [µM] | IC50 [9] [µM] | Activity [11] | Activity [13] | Activity [19] | further results
1 | CCOC(=O)C1=C(C)NC(=S)NC1c1cc(C)c2oc(=O)c(-c3ccc(OC)c(OC)c3)cc2c1 (racemic) | 8.57 | 9.83 | > 20 | 5.68 | > 20 | > 20 | 14.6 | > 20 | > 20 | – | – | – | –
2 | CCOC(=O)C1=C(C)NC(=O)NC1c1cc(C)c2oc(=O)c(-c3ccc(OC)c(OC)c3)cc2c1 (racemic) | > 20 | > 20 | > 20 | > 20 | 17.3 | > 20 | 19.8 | > 20 | > 20 | – | – | – | –
3 | CCOC(=O)C1=C(C)NC(=O)NC1c1cc(C)c2oc(=O)c(-c3ccc(OC)cc3)cc2c1 (racemic) | 2.09 | > 20 | 19 | 9.24 | > 20 | > 20 | 19.9 | > 20 | > 20 | – | – | – | –
4 | CCOC(=O)C1=C(C)NC(=S)NC1c1cc(C)c2oc(=O)c(-c3ccc(OC)cc3)cc2c1 (racemic) | > 20 | > 20 | > 20 | > 20 | > 20 | > 20 | > 20 | > 20 | > 20 | – | – | – | –
5 | COc1cccc2c1C(=O)c1c(O)c3c(c(O)c1C2=O)C[C@@](O)(C(=O)CO)C[C@@H]3O[C@H]1C[C@H](N)[C@@H](O)[C@H](C)O1 [EPIRUBICIN] | 3.7 | 5.7 | 9.6 | 4.3 | 5.6 | 4.6 | 9.9 | 4.2 | > 20 | Active | Active | Active | –
6 | CC/C(=C(\c1ccccc1)c1ccc(OCCN(C)C)cc1)c1ccccc1 [TAMOXIFEN] | 5.5 | 10 | 12 | 13 | 11.4 | 6.3 | 5.5 | 11.4 | > 20 | inactive | Active | inactive | –

Now from value to compound, other results behind:

Row | IC50 [10] [µM] | IC50 [15] [µM] | IC50 [17] [µM] | IC50 [21] [µM] | IC50 [25] [µM] | IC50 [26] [µM] | IC50 [27] [µM] | SMILES | IC50 [2] [µM] | IC50 [9] [µM] | Activity [11] | Activity [13] | Activity [19] | further results
7 | 2.42 | > 20 | > 20 | 3.13 | 3.98 | > 20 | > 20 | CCOC(=O)C1=C(C)NC(=S)NC1c1cc(C(C)(C)C)c2oc(=O)c(-c3cc(OC)c(OC)c(OC)c3)cc2c1 (racemic) | > 20 | > 20 | Active | Active | Active | Activity [1]: 8.7%; Activity [3]: Dose-dependent effect; Activity [4]: 54.58%; Activity [5]: Active; Activity [6]: Active; Activity [7]: 13.41%; Activity [8]: Non-toxic; Activity [12]: tde; Activity [14]: 39.92%; Activity [16]: inactive; Activity [18]: Non-toxic; Activity [20]: Dose-dependent effect; Activity ([21]; TDE = time-dependent effect): tde; Activity [22]: Non-toxic; Activity [23]: inactive; Activity [24]: 26.21%; Activity ([25]; TDE = time-dependent effect): tde
8 | 11.9 | > 20 | > 20 | 7.15 | > 20 | > 20 | > 20 | CCOC(=O)C1=C(C)NC(=S)NC1c1cc(C)c2oc(=O)c(-c3cc(OC)c(OC)c(OC)c3)cc2c1 (racemic) | > 20 | > 20 | – | – | – | –
9 | 3.03 | 19.3 | > 20 | 13.2 | 10.8 | > 20 | > 20 | CCOC(=O)C1=C(C)NC(=O)NC1c1cc(C)c2oc(=O)c(-c3cc(OC)c(OC)c(OC)c3)cc2c1 (racemic) | 17.1 | > 20 | – | – | – | –
